Results as given in article PMC10761119, “Phosphorylation-state dependent intraneuronal sorting of Aβ differentially impairs autophagy and the endo-lysosomal system” (Autophagy, 2023).

Legend:
SH-SY5Y cells [1] = assay: Autophagic flux with tandem reporter mCherry-GFP-LC3B; assay type: cell-based, human; settings: Aβ 1 µM, 24 h, n = 8, N = 4; for Mander's overlap coefficient, R, of Aβ with GFP-positive vesicles / Mander's overlap coefficient, R, of Aβ with mCherry-positive vesicles: mean ± S.D.
Method: SH-SY5Y cells were transfected with either GFP-LC3-LC3Δ-RFP or mCherry-GFP-LC3B tandem constructs (0.5 μg/well +1 µl transfection reagent − 24 well plate) with Lipofectamine 2000 (Life Technologies, 11668019) in OptiMEM (Life Technologies, 11058021) in DMEM/F-12, FCS^− PS^− media. After 8 h, FCS^− PS^− media was changed to normal culture media, respectively. Transfection efficiency was around 50–60% in all analyzed coverslips.
SH-SY5Y cells seeded on D1, were treated with Aβ variants (1 μM) on D3 in DMEM/F-12 media without serum and antibiotics. Control treatment included treatment with equal volume of 10 mM NaOH solution used for preparing the Aβ stock solutions, in respective cell culture medium. SH-SY5Y cells, after 16 h of transient expression of the reporter constructs, were treated with different Aβ variants, autophagy modulator substrates and respective controls in DMEM/F-12, FCS^− PS^− media for the mentioned time points. After treatment, cells were washed twice with PBS and with 0.025% trypsin-EDTA in PBS to get rid of cell bound Aβ, followed by subsequent washings with PBS again. Cells were either collected by scraping using a cell-scraper or fixed with 4% PFA-PBS for 15 min at RT, for further immunocytochemistry experiments. Collected treatment media was centrifuged at 1000 g for 5 min, pellet discarded and supernatant frozen at −20°C until further usage.
All images were processed and analyzed using Fiji ImageJ software. Mander’s overlap coefficient (Figure 1B–D; Figure 2B–F; Figure 4B–F; Figure 6E; S2B, D; S4B, D; S6D, F) analysis was done using the colocalization processing module of the Fiji ImageJ plugin. Distance from the plaque core (Figure 1B) was measured using the concentric circles plugin module. Fluorescence intensity of the green channel (Figure S3A-B), and the number of neurons positive for Aβ signals (Figure S3-D) were quantified using the processing module of Keyence software. Intensity analysis (Figure S4E-I) was performed by manually selecting the region of interest (ROI) and measuring the intensity of the individual channels in the selected area. RFP/GFP (Figure 6A) and LysoSensor Green/Blue (Figure 7A) ratiometric images were created by using the image calculator module. Intensity of green and red channel for a particular ROI was calculated and ratios of the individual values were computed (Figure 6B and S7A). For computing the number of mCherry^+GFP^± vesicles or per cell (Figure 6D and S7B), cell outline was drawn manually and number of vesicles per cell (nucleus count – DAPI) was calculated. Similarly, the number of perinuclear and peripheral LAMP2-positive lysosomes or percentage of LAMP2 compartments containing Aβ was computed using the concentric circle processing module (Figure 7D). Due to slight variability in transfection efficiency or the number of cells in different experimental set-ups, the readings from each experiment were averaged and normalized to the control cells from that particular set. Average values from each experiment were normalized to the respective controls in the same set. Values from independent experiments were then computed and values are represented as independent data points.

SH-SY5Y cells [2] = assay: Lysosomal acidification assay using LysoSensor-dextran; assay type: cell-based, human; settings: Aβ 1 µM, within 24 h of incubation; ΔpH = pHfinal (t = 24 h) − pHinitial (control, t = 0 h); n = 12, N = 4
Method: Cells were cultured on coverslips and treated with Aβ variants (primary cortical neurons, DIV14–500 nM, 4 h; SH-SY5Y cells, D3–1 μM, 24 h) in presence of 50 µM LysoSensor-dextran probe (ThermoFisher Scientific, L7545) in cell culture media for the indicated time points. Cells were washed and stained as described before. For fluorescence analyses, cells were cultured and treated in a 96-well plate for the indicated time points, and washed thrice with PBS to remove the excess probe. Fluorescence intensity analysis of blue and green channel was done using a multiplate reader (Tecan Life Sciences, Switzerland). […] was computed from the fluorescence values measured at λEx 340 nm and λEm 450 nm (blue channel) and λEm 535 nm (green channel), respectively. Values were normalized to absorbance at 340 nm and protein content per well, and represented as change of LysoSensor acidification with respect to control cells (Figure 7B and S7C-D). pH values were computed by preparing a standard curve, wherein cells treated with 1 µM nigericin (Sigma Aldrich, N7143) and 1 µM monensin (Sigma Aldrich, M5273) were incubated with media of pH 4.5, 7.5 and 9.2. As independent controls, 100 nM bafilomycin A1 (Sigma Aldrich, 553210), 1 mM NH4Cl- and 10 µM rapamycin (Cayman Chemicals, 19438)-treated cells were also used as independent controls to validate the measurements. Change in LysoSensor pH (ΔpH) for Aβ treated cells was quantified using the formula ΔpH = pHfinal (control/Aβ, t = 24 h) − pHinitial (control, t = 0 h). Box plots (Figure 7C and S7E) depict the overall distribution of data, and each data point represents average values from an independent experiment; n = 12, N = 4.

## amyloid-β phosphorylated at serine residue 8 [p-Ser8Aβ]
SH-SY5Y cells [1]; compared to control and to p-Ser26Aβ treated cells
  Number of mCherry+ GFP+ vesicles per cell: significantly higher
SH-SY5Y cells [1]
  Mander's overlap coefficient, R, of Aβ with GFP-positive vesicles: 0.56 ± 0.10
  Mander's overlap coefficient, R, of Aβ with mCherry-positive vesicles: 0.57 ± 0.06
  Number of mCherry+ GFP− vesicles per cell: significantly least
SH-SY5Y cells [2]
  Decrease in the pH (LysoSensor response, ΔpH): did not show any change

## amyloid-β phosphorylated at serine residue 26 [p-Ser26Aβ]
SH-SY5Y cells [1]
  Mander's overlap coefficient, R, of Aβ with GFP-positive vesicles: 0.30 ± 0.05
  Mander's overlap coefficient, R, of Aβ with mCherry-positive vesicles: 0.70 ± 0.05
  Number of mCherry+ GFP− vesicles per cell: significantly higher number
SH-SY5Y cells [2]
  Decrease in the pH (LysoSensor response, ΔpH): 0.17 ± 0.12 units

## non-phosphorylated amyloid-β [npAβ, reference compound]
SH-SY5Y cells [1]; compared to control cells
  Ratio of mCherry:GFP fluorescence intensities: not significantly altered
SH-SY5Y cells [1]
  Mander's overlap coefficient, R, of Aβ with GFP-positive vesicles: 0.40 ± 0.05
  Mander's overlap coefficient, R, of Aβ with mCherry-positive vesicles: 0.61 ± 0.04
SH-SY5Y cells [2]
  Decrease in the pH (LysoSensor response, ΔpH): 0.13 ± 0.11 units
